Assay [1] concerns the target IDH1 R132H enzyme (Homo sapiens (Human), UniProt O75874, R132H). The experiment in a line: Mutant IDH1 R132H biochemical assay. The following applies: NADPH consumption, luminescent readout; 1.5 nM enzyme, 1 μM NADPH, 250 μM α-KG, 30 minutes, 32° C. On the procedure: Mutant IDH1 R132H Biochemical Assay mIDH1 catalyzes the NADPH-dependent reduction of alpha-ketoglutarate (a-KG) to (2R)-2-hydroxyglutarate (2-HG). NADPH consumption was measured by luminescent readout.
The biochemical reactions were performed at 32° C. in 384-well plates using a reaction volume of 41 μL and the following assay buffer conditions: 50 mM Tris pH 7.5, 100 mM NaCl, 20 mM MgCl2, 0.05% BSA, 0.01% Brij, 1 μM NADPH, and 250 μM α-KG. The IDH1 R132H enzyme was used in a final concentration of 1.5 nM. Test compounds were used in a concentration range between 0.002 and 10 μM. The final DMSO concentration was 2.4%.
The reaction was incubated for 30 minutes, then 40 μL of detection mix (0.75 μg/ml Luciferase, 0.02 U/ml Oxidoreductase, 4 μg/mL FMN, 2 μL/ml decanal/ethanol, 50 mM Tris pH 7.5, 0.5% Glycerin, 0.01% Tween-20, 0.05% BSA) was added. Luminescence was measured on a luminescent reader (10 seconds measuring time, 1 second integration period, 30% sensitivity). The decrease in luminescence is proportional to mIDH1 activity. IC50 values are determined by interpolation from plots of relative luminescence versus inhibitor concentration.

Assay [2] concerns the target Mutant IDH1 (LN229 R132H cells) (Homo sapiens (Human), UniProt O75874, R132H). The experiment in a line: Mutant IDH1 cellular assay (2-HG levels in medium of LN229 R132H cells). The format is cell-based. The following applies: 2-HG production in LN229 R132H cells, 24 hours incubation, fluorescence readout. Here is the method: Levels of (2R)-2-hydroxyglutarate (2HG) were measured in medium of a cell line with overexpression of mutated isocitrate dehydrogenase (mIDH) protein. mIDH catalyzes the NADPH-dependent reduction of alpha-ketoglutarate to 2-HG. Cells (LN229 R132H, Mohrenz et al., Apoptosis (2013) 18:1416-1425) were grown in DMEM containing 10% FCS. They were harvested by trypsin and seeded into 96-well plates. Cells were incubated overnight at 37° C. in 5% CO2. The next day test compounds were added to each cell well. The final concentration of DMSO was 0.1% and DMSO controls were included. The plates were then placed in an incubator for 24 hours.
2-HG was measured according to Balss et al. (Acta Neuropathol (2012) 124: 883-891). Briefly, HClO4 was added to each well and the plates were centrifuged. Aliquots are removed and incubated with hydroxyglutarate dehydrogenase (HGDH), diaphorase, NAD+, and resazurin. The conversion of resazurin to resorufin was detected by fluorescence spectroscopy at Ex 540 nm Em 600 nm. The increase in fluorescence is proportional to 2-HG production. IC50 values are determined by interpolation from plots of relative fluorescence vs inhibitor concentration.

Chain of IDH1 R132H enzyme (O75874 whole entry R132H): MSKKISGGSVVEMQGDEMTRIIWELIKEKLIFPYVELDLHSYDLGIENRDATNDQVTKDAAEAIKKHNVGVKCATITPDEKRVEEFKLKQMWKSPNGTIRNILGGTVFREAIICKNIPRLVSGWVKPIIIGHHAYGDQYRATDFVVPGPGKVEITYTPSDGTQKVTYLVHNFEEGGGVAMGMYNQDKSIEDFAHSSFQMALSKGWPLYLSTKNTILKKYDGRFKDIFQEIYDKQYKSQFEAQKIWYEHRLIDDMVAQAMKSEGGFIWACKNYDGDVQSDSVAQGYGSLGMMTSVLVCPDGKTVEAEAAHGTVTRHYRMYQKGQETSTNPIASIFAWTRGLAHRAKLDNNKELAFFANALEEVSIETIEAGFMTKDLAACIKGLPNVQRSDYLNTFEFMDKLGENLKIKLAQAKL
Chain of Mutant IDH1 (LN229 R132H cells) (O75874 whole entry R132H): as above

The IC50 is the concentration that inhibits the measured activity by half. A higher IC50 goes with a need for much substance. With `COc1cc2c(cc1C(=O)O)nc(Nc1ccc(C(C)C)cc1)n2[C@@H]1C[C@H](C)CC[C@H]1C(C)C` [Example 2-29], the IC50 stood at 13 nM in assay [1] and 40 nM in assay [2].

Source of the values: patent publication US10370339B2, “N-Methylbenzimidazoles as mIDH1 inhibitors” (BAYER PHARMA AKTIENGESELLSCHAFT, priority 2015, dated 2019).
